ChEMBL document CHEMBL2062477, “Dual-Specificity Phosphatase CDC25A/B Inhibitor Identified from a Focused Library with Nonelectrophilic Core Structure” (ACS Med Chem Lett, 2012)

Assays:
[1] = target: T1, Tyrosine-protein phosphatase non-receptor type 1 (Homo sapiens, UniProt P18031); experiment: Inhibition of PTP1B
T1 sequence (P18031 whole entry): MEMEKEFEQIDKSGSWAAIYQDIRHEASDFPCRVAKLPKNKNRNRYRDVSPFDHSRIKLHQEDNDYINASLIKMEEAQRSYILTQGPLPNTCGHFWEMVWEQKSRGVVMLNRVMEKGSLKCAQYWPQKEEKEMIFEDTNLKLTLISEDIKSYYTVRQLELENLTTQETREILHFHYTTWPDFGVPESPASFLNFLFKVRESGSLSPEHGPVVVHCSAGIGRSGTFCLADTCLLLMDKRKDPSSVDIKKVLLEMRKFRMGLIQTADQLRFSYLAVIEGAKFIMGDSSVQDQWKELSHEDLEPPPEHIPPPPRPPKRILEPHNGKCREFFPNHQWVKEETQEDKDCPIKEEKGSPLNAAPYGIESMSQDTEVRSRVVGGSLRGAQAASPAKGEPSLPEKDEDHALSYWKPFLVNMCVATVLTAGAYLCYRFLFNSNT

[2] = target: T2, Dual specificity protein phosphatase 1 (Homo sapiens, UniProt P28562); experiment: Inhibition of MKP1
T2 sequence (P28562 whole entry): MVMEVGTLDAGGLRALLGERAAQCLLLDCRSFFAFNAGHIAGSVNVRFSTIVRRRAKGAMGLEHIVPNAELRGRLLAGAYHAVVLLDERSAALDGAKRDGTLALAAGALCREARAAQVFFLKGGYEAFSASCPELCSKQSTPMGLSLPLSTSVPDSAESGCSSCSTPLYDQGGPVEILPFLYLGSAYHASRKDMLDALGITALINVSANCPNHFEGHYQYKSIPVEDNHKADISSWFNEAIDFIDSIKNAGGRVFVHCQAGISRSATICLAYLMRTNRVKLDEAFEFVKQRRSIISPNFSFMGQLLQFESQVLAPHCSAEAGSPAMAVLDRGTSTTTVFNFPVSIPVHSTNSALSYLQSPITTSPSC

[3] = target: T3, Dual specificity protein phosphatase 6 (Homo sapiens, UniProt Q16828); experiment: Inhibition of MKP3
T3 sequence (Q16828 whole entry): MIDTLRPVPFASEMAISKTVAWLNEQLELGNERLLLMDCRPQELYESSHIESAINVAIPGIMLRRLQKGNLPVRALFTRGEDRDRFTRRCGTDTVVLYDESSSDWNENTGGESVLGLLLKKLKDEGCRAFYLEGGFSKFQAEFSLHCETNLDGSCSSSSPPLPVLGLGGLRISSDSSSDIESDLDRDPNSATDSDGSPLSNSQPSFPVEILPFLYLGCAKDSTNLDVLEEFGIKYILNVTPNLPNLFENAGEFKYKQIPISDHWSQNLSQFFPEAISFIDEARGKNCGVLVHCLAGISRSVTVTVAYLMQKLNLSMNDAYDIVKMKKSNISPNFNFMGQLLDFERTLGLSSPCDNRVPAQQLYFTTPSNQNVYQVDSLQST

[4] = target: T4, M-phase inducer phosphatase 3 (Homo sapiens, UniProt P30307); experiment: Inhibition of CDC25C
T4 sequence (P30307 whole entry): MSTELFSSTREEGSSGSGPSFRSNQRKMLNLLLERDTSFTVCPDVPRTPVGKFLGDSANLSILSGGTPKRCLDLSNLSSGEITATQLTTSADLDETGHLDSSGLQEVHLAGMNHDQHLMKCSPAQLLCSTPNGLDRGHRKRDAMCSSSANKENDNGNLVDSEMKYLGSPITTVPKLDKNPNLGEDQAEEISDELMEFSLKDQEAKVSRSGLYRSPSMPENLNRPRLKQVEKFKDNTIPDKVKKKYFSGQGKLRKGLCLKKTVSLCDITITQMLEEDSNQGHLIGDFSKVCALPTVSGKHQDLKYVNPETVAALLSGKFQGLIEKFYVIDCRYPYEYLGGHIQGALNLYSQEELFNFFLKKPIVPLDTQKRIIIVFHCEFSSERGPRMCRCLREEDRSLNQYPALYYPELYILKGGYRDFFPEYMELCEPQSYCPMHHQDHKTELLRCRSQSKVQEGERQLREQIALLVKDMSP

[5] = target: T5, M-phase inducer phosphatase 2 (Homo sapiens, UniProt P30305); experiment: Inhibition of CDC25B
T5 sequence (P30305 whole entry): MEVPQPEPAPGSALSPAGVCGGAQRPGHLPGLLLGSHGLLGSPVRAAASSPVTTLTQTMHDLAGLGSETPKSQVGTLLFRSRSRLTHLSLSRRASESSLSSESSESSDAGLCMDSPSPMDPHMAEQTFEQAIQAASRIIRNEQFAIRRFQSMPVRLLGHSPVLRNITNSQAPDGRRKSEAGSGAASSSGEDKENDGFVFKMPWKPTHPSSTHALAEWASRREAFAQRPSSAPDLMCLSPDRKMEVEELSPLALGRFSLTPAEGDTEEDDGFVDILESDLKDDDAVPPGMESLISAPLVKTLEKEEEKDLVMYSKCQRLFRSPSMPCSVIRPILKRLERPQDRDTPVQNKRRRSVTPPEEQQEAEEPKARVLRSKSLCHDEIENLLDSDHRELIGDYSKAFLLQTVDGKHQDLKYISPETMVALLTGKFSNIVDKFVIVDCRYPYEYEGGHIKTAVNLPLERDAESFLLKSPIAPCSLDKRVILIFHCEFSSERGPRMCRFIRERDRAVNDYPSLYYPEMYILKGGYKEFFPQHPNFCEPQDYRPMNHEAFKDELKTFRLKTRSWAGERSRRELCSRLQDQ

[6] = target: Dual specificity protein phosphatase 3 (Homo sapiens, UniProt P51452); experiment: Inhibition of VHR
Dual specificity protein phosphatase 3, sequence (P51452 whole entry): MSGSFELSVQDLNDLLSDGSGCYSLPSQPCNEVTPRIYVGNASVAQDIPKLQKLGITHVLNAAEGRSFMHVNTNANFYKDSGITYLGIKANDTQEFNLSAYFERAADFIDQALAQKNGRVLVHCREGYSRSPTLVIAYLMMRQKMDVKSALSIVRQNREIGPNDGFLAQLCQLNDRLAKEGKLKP

[7] = target: T6, M-phase inducer phosphatase 1 (Homo sapiens, UniProt P30304); experiment: Inhibition of CDC25A
T6 sequence (P30304 whole entry): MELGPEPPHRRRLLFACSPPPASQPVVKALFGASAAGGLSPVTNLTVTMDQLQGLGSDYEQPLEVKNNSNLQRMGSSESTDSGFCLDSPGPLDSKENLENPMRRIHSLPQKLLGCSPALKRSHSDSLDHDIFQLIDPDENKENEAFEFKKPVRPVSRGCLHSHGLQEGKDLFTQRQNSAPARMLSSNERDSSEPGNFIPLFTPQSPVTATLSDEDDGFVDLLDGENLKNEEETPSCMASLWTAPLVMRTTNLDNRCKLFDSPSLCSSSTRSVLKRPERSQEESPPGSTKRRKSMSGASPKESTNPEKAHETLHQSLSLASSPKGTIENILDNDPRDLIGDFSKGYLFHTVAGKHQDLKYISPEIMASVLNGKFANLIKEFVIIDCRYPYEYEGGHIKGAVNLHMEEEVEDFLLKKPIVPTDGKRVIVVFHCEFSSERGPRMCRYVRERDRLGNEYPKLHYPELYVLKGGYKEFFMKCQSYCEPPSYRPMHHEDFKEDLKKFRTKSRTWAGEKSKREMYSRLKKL

[8] = tested on: HL-60; experiment: cells; details: Homo sapiens, HL-60, 48 h

| Structure (SMILES) | IC50 [1] [µM] | IC50 [2] [µM] | IC50 [3] [µM] | IC50 [4] [µM] | IC50 [5] [µM] | IC50 [6] [µM] | IC50 [7] [µM] | IC50 [8] [µM] |
| --- | --- | --- | --- | --- | --- | --- | --- | --- |
| CCCCCCCCCCCCCCCC(NCc1cccc(N(C)C)c1)=C1C(=O)OC(CO)C1=O (mixture of isomers) | > 100 | > 100 | > 100 | > 100 | 6.55 | 5.13 | 11.4 | – |
| CCCCCCCCCCCCCCCC(NCc1ccccc1F)=C1C(=O)OC(CO)C1=O (mixture of isomers) | > 100 | > 100 | > 100 | 47.1 | – | 8.93 | 12.6 | – |
| CCCCCCCCCCCCCCCC(NCc1ccc(O)cc1)=C1C(=O)OC(CO)C1=O (mixture of isomers) | 68.1 | > 100 | > 100 | 44.1 | 4.23 | 9.93 | 6.86 | – |
| CCCCCCCCCCCCCCCC(NCc1ccccc1N(C)C)=C1C(=O)OC(CO)C1=O (mixture of isomers) | > 100 | > 100 | > 100 | > 100 | 5.75 | 5.19 | 8.5 | – |
| CCCCCCCCCCCCCCCC(NCc1ccccc1OC)=C1C(=O)OC(CO)C1=O (mixture of isomers) | > 100 | > 100 | > 100 | > 100 | 12.1 | 6.6 | 19 | – |
| CCCCCCCCCCCCCCCC(NCc1ccc(N(C)C)cc1)=C1C(=O)OC(CO)C1=O (mixture of isomers) | > 100 | > 100 | > 100 | > 100 | 6.23 | 12 | 8.67 | 10.9 |
| CCCCCCCCCCCCCCCC(NCc1ccccc1Cl)=C1C(=O)OC(CO)C1=O (mixture of isomers) | > 100 | > 100 | > 100 | > 100 | 13.5 | 10.2 | 12.3 | – |
| CCCCCCCCCCCCCCCC(NCc1cccc(O)c1)=C1C(=O)OC(CO)C1=O (mixture of isomers) | > 100 | > 100 | > 100 | > 100 | 3.15 | 11.1 | 15.4 | – |
| CCCCCCCCCCCCCCCC(NCc1ccccc1C)=C1C(=O)OC(CO)C1=O (mixture of isomers) | > 100 | > 100 | > 100 | > 100 | 8.61 | 8.99 | 12.7 | – |
| CCCCCCCCCCCCCCCC(NCc1cccc(F)c1)=C1C(=O)OC(CO)C1=O (mixture of isomers) | 83.7 | > 100 | > 100 | 78.2 | 5.13 | 4.69 | 6.22 | – |
| CCCCCCCCCCCCCCCC(NCc1ccc(F)cc1)=C1C(=O)OC(CO)C1=O (mixture of isomers) | > 100 | > 100 | > 100 | > 100 | 13.1 | – | 10.7 | – |
| CCCCCCCCCCCCCCCC(NCc1cccc(Cl)c1)=C1C(=O)OC(CO)C1=O (mixture of isomers) | > 100 | > 100 | > 100 | > 100 | > 100 | 1.43 | > 100 | 12 |
| CCCCCCCCCCCCCCCC(NCc1ccc(Cl)cc1)=C1C(=O)OC(CO)C1=O (mixture of isomers) | > 100 | > 100 | > 100 | > 100 | 5.52 | 3.63 | 6.25 | – |
| CCCCCCCCCCCCCCCC(NCc1cccc(OC)c1)=C1C(=O)OC(CO)C1=O (mixture of isomers) | > 100 | > 100 | > 100 | > 100 | 8.31 | 5.53 | 10.2 | – |
| CCCCCCCCCCCCCCCC(NCc1ccc(C)cc1)=C1C(=O)OC(CO)C1=O (mixture of isomers) | > 100 | > 100 | > 100 | 56.7 | 3.33 | 2.68 | 7.35 | 19.1 |
| CCCCCCCCCCCCCCCC(NCc1ccc(OC)cc1)=C1C(=O)OC(CO)C1=O (mixture of isomers) | > 100 | > 100 | > 100 | > 100 | 23.8 | 6.77 | 11.7 | – |
